Where two headings read alike, the source gives them in different places. Starred links: 1 amine or outer side, 2 acyl side, 3 side chain; linkers in the order of their positions; H or OH if unused. Positions of bridges follow the written chain, without caps; N, C: chain ends. Non-standard residues stand in square brackets, D forms with d. Residues, ends and D or L forms follow the SMILES beside them. dεLys(Nα-amidino) = N=C(N)N[C@H](CCCCN[*:1])C(=O)[*:2]; NHCH2(1,3-C6H4)CH2CO = O=C(Cc1cccc(CN[*:1])c1)[*:2]; βAla = NCCC(=O)O
Experiments:
Format in all cases: biochemical
[1] = target: T1, bD4Pro (unlinked binary dengue-4 virus NS2B-NS3 protease) (Dengue virus type 4, UniProt Q2YHF2); assay: Enzyme kinetics with bD4Pro, substrate Benzoyl-Nle-Lys-Arg-Arg-AMC
T1 construct: The viral protease consists of the N‐terminal third of the nonstructural protein NS3; NS3 has to form a complex with its cofactor NS2B to achieve proteolytic activity; His6 (cleaved yes); made in house
T1 sequence (Q2YHF2 1475-1652 limits assumed): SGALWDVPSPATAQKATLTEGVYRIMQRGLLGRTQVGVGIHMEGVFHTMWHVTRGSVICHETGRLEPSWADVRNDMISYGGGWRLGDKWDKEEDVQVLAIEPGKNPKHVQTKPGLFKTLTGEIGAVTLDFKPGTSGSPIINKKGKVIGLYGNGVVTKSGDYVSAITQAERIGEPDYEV
T1 sequence (Q2YHF2 1397-1436 limits assumed): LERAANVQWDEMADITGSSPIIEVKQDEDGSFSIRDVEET
Procedure: Measurements with the dengue 4 virus protease construct (bD4Pro; expressed and purified by a similar methodology as described for bZiPro15 with slight modification of using Tobacco Etch Virus (TEV) protease instead of thrombin for His6‐tag cleavage) were performed in a Cytation 3 Mulitmode plate reader with λ ex at 380 nm and λ em at 460 nm. Assays were carried out as triplicate at 37 °C. Before measurement, the protease (final assay concentration 3 nM) was preincubated with varying concentrations of inhibitors in assay buffer (20 mM Tris pH 8.5, 10 % glycerol, 0.01 % Triton X‐100) for 1 h at room temperature in Corning black clear bottom 96‐well plates. The reaction was started by addition of the substrate Benzoyl‐Nle‐Lys‐Arg‐Arg‐AMC (final assay concentration 50 μM, K M=48.4 μM). Fluorescent readings were recorded at 1‐minute intervals over 10 minutes. The steady‐state rates v i in presence of inhibitor were calculated from the slopes of the progress curves using Graph Pad Prism. The v i values were fitted to Equation (2) as function of the inhibitor concentration [I] providing the IC50 values, where v 0 is the rate in absence of inhibitor and s a slope factor. The obtained IC50 values were finally converted into K i values by the Cheng‐Prusoff Equation (2).(2) vi=v0/1+I/IC50^s (3) Ki=IC50/1+S/KM

[2] = target: T2, WNV NS2B-NS3 protease (WNV-Pro) (West Nile virus, UniProt P06935); assay: Enzyme kinetics with the covalent WNV NS2B-NS3 construct, substrate Phac-Leu-Lys-Lys-Arg-AMC
T2 construct: NS3 has to form a complex with its cofactor NS2B to achieve proteolytic activity; The viral protease consists of the N‐terminal third of the nonstructural protein NS3
T2 sequence (P06935 1424-1463): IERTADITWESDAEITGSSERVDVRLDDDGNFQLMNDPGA
T2 sequence (P06935 1502-1679): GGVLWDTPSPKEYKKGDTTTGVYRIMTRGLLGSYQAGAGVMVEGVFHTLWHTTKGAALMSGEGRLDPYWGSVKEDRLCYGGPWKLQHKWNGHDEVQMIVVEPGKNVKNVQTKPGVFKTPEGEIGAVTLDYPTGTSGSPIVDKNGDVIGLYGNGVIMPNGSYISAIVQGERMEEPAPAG
Procedure: (§1) Enzyme kinetics. Measurements with bZiPro15 and the covalent WNV NS2B‐NS3 construct^10 were performed at room temperature in black 96 well plates using a Fluoroskan Ascent® plate reader (Thermo Fisher Scientific, Vantaa, Finland) with λ ex at 355 nm and λ em at 460 nm. Each well contained 125 μL inhibitor dissolved in buffer (for bZiPro: 20 mM Tris×HCl pH 8.5, 2 mM DTT, 10 w/v glycerol and 0.01 w/v Triton X‐100;18 for WNV protease: 100 mM Tris×HCl pH 8.5, containing 32 w/v glycerol and 0.01 w/v Triton X‐10012) and 50 μL substrate Phac‐Leu‐Lys‐Lys‐Arg‐AMC12 (40 μM for bZiPro (10 μM in assay, K M=1.4 μM) and 400 μM for the WNV protease (100 μM in assay, K M=53 μM)). The measurements were started by addition of 25 μL enzyme solution (16 nM for bZiPro (2.0 nM in assay), and 64 nM for the WNV protease (8.0 nM in assay)). Data points were collected each 15 s over a period of 10 min using eight different inhibitor concentrations. […] The K i values and their standard deviation were obtained from at least three independent measurements.(1) vi=Vmax×[S]/KM1+[I]/Ki+[S]

[3] = target: T3, bZiPro (unlinked binary Zika virus NS2B-NS3 protease) (Zika virus, UniProt A0A024B7W1); assay: Enzyme kinetics with bZiPro, fluorogenic substrate Phac-Leu-Lys-Lys-Arg-AMC
T3 construct: The viral protease consists of the N‐terminal third of the nonstructural protein NS3; the NS2B construct ends at Glu96; His6 (cleaved yes); made in house
T3 sequence (A0A024B7W1 1503-1680 limits assumed): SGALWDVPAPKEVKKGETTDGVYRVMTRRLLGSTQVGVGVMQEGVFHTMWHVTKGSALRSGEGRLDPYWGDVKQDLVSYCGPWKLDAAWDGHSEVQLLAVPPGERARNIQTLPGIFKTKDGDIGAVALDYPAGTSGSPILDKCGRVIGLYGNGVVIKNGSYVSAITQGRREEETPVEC
T3 sequence (A0A024B7W1 1425-1464 limits assumed): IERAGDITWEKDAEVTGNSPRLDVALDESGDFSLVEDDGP
Procedure: as §1
The constants K M and V max were obtained from independent measurements with six different substrate concentrations in absence of inhibitor. For inhibitor 10 with bZiPro, additional measurements at three substrate concentrations (10, 5, and 2.5 μM in assay) were performed to obtain the Dixon plot shown in Figure 4.

[4] = K i bZiPro, mean±SD of at least three independent measurements, substrate 10 μM in assay, room temperature, pH 8.5
[5] = mean±SD of at least three independent measurements, 37 °C, IC50 converted into K i by Cheng-Prusoff, read-out: K i bD4Pro
[6] = mean±SD of at least three independent measurements, substrate 100 μM in assay, room temperature, pH 8.5, read-out: K i WNV-Pro
[7] = mean±SD of at least three independent measurements, substrate 10 μM in assay, room temperature, pH 8.5, read-out: K i bZiPro

| SMILES | Ki [1] | Ki [2] | Ki [3, 4] | Ki [1, 5] | Ki [2, 6] | Ki [3, 7] | times less potent inhibitor of bZiPro than analogue 10 ([3]; compared with cyclic analogue 10) | Ki ([3]; K i against bZiPro / ZIKV protease, value given in running text) | fold improved potency compared with 29 ([3]; uncharged amide analogue versus free P1 carboxyl compound 29) |
| --- | --- | --- | --- | --- | --- | --- | --- | --- | --- |
| N=C(N)N[C@@H]1CCCCNC(=O)[C@H](CCCCN)NC(=O)[C@H](CCCCN)NC(=O)CCCCNC(=O)CNC1=O [Inhibitor 23] | 1120 ± 50 nM | 1220 ± 20 nM | 16.7 ± 3.4 nM | – | – | – | – | – | – |
| CC(C)[C@@H]1NC(=O)[C@H](NC(=N)N)CCCCNC(=O)[C@H](CCCCN)NC(=O)[C@H](CCCCN)NC(=O)Cc2cccc(c2)CNC1=O [Inhibitor 17] | 2810 ± 180 nM | 6710 ± 320 nM | 42.8 ± 2.2 nM | – | – | – | – | – | – |
| N=C(N)N[C@@H]1CCCCNC(=O)[C@H](CCCCN)NC(=O)[C@H](CCCCN)NC(=O)CNC(=O)CCNC(=O)CNC1=O [Inhibitor 27] (cyclo(G[βAla]GKK[dεLys(Nα-amidino)])) | – | – | – | 815 ± 79 nM | 468 ± 3 nM | 7.35 ± 0.39 nM | – | – | – |
| N=C(N)N[C@@H]1CCCCNC(=O)[C@H](CCCCN)NC(=O)[C@H](CCCCN)NC(=O)CNC(=O)CNC(=O)CNC1=O [Inhibitor 25] (cyclo(GGGKK[dεLys(Nα-amidino)])) | 378 ± 27 nM | 129 ± 7 nM | 3.74 ± 0.2 nM | – | – | – | – | – | – |
| N=C(N)N[C@H](CCCCNC(=O)[C@H](CCCCN)NC(=O)[C@H](CCCCN)NC(=O)Cc1cccc(CNC(=O)CN)c1)C(=O)O [Inhibitor 29] | 75000 ± 3400 nM | 51600 ± 700 nM | 2040 ± 600 nM | – | – | – | more than 1000 times | – | – |
| N=C(N)N[C@@H]1CCCCNC(=O)[C@H](CCCCN)NC(=O)[C@H](CCCCN)NC(=O)Cc2cccc(c2)NC(=O)CCCNC1=O [Inhibitor 14] | 5800 ± 360 nM | 16500 ± 4600 nM | 106 ± 29 nM | – | – | – | – | – | – |
| N=C(N)N[C@@H]1CCCCNC(=O)[C@H](CCCCN)NC(=O)[C@H](CCCCN)NC(=O)Cc2cccc(c2)CNC(=O)[C@H]2CCCN2C1=O [Inhibitor 19] | 4080 ± 260 nM | 850 ± 68 nM | 17.7 ± 0.5 nM | – | – | – | – | – | – |
| N=C(N)N[C@@H]1CCCCNC(=O)[C@H](CCCCN)NC(=O)[C@H](CCCCN)NC(=O)Cc2cccc(c2)CNC1=O [Inhibitor 12] | 1280 ± 50 nM | 15300 ± 800 nM | 37.3 ± 4.7 nM | – | – | – | – | – | – |
| C[C@H]1NC(=O)[C@H](NC(=N)N)CCCCNC(=O)[C@H](CCCCN)NC(=O)[C@H](CCCCN)NC(=O)Cc2cccc(c2)CNC1=O [Inhibitor 16] | 125 ± 4 nM | 237 ± 21 nM | 3.52 ± 1.09 nM | – | – | – | – | – | – |
| N=C(N)N[C@@H]1CCCCNC(=O)[C@H](CCCCN)NC(=O)[C@H](CCCCN)NC(=O)Cc2cccc(c2)NC(=O)CCNC1=O [Inhibitor 13] | 7960 ± 550 nM | 4280 ± 310 nM | 80.2 ± 9.7 nM | – | – | – | – | 80 nM | – |
| NCCCC[C@@H]1NC(=O)Cc2cccc(c2)CNC(=O)CNC(=O)[C@H](N)CCCCNC(=O)[C@H](CCCCN)NC1=O [Inhibitor 20] (H-[dK]G[NHCH2(1,3-C6H4)CH2CO]KK; lactam 1-C) | 282000 nM | 99000 nM | 23000 nM | – | – | – | – | – | – |
| N=C(N)N[C@@H]1CCCCNC(=O)[C@H](CCCCN)NC(=O)[C@H](CCCCN)NC(=O)CCCCCNC(=O)CNC1=O [Inhibitor 24] | 1990 ± 90 nM | 973 ± 173 nM | 15.4 ± 2.6 nM | – | – | – | – | – | – |
| N=C(N)N[C@@H]1CCCCNC(=O)[C@H](CCCCN)NC(=O)[C@H](CCCCN)NC(=O)Cc2cccc(c2)CNC(=O)CCCNC1=O [Inhibitor 8] | 286 ± 9 nM | 702 ± 83 nM | 4.33 ± 0.35 nM | – | – | – | – | – | – |
| N=C(N)N[C@@H]1CCCCNC(=O)[C@H](CCCCN)NC(=O)[C@H](CCCCN)NC(=O)CCNC(=O)CNC(=O)CNC1=O [Inhibitor 26] (cyclo(GG[βAla]KK[dεLys(Nα-amidino)])) | – | – | – | 160 ± 5 nM | 68.6 ± 13.1 nM | 1.72 ± 0.03 nM | – | – | – |
| N=C(N)N[C@H](CCCCNC(=O)[C@H](CCCCN)NC(=O)[C@H](CCCCN)NC(=O)Cc1cccc(CNC(=O)CN)c1)C(N)=O [Inhibitor 30] | 775 ± 47 nM | 1550 ± 380 nM | 13.6 ± 2.6 nM | – | – | – | – | – | more than 100 fold |
